Measured values as given in US4382945A, “Tetrahydrothiepino[4,5-d]imidazole derivatives, composition and method of use” (Hoffmann-La Roche Inc., priority 1980, dated 1983).
Counter-ions that a name gives are not always drawn.

Experiments:
Plasma glucose = assay: Antihyperglycemic activity: plasma glucose concentration after oral glucose load in fasted rats; format: in vivo; conditions: percentages of the controls, rats fasted 24 hours, 0.3 mmol/kg p.o., glucose 1.6 g/kg orally 100 minutes later, plasma 20 minutes after glucose, averages
Method: Gum arabic (12 control animals) or 0.3 mmol/kg p.o. of test substance (6 experimental animals) is administered to rats (fasted for 24 hours) and 100 minutes later a suspension of 1.6 g of glucose in 10 ml of 5 percent gum arabic is administered orally per kg body weight. The animals are killed 20 minutes after the glucose administration. Plasma is obtained from the heparinized mixed blood. The glucose concentration in the plasma is determined according to the hexokinase method.

[1] = tested on: Human platelet-rich plasma (collagen-induced blood platelet aggregation); assay: Collagen-induced blood platelet aggregation (aggregometer method of BORN); format: cell-based; conditions: 10 min; human citrated platelet-rich plasma; 37° C., 10 minutes incubation; collagen-fibrils; maximum aggregation velocity as test parameter
Method: Human platelet-rich plasma was obtained by centrifugation from citrated venous blood. The experiments were carried out with suspensions of the test substances in 0.9% sodium chloride. 0.18 ml of citrate plasma were treated with a 10 μl suspension of the test compounds and incubated at 37° C. for 10 minutes, whereupon the aggregation was initiated by the addition of 10 μl of a suspension of collagen-fibrils.

EC50 [1] [µM]	SMILES	Plasma glucose concentration (%) (Plasma glucose)	Plasma glucose concentration (%) (Plasma glucose; listed as 2-Phenyl-4,5,7,8-tetrahydro-4,4,8,8-tetramethyl-1-H-thiepino-8 4,5-d]-imidazole , hydrochloride)
0.8	CC1(C)CSCC(C)(C)c2[nH]c(-c3ccccc3)nc21 [2-Phenyl-4,5,7,8-tetrahydro-4,4,8,8-tetramethyl-1-H-thiepino[4,5-d]-imidazole hydrochloride]		67
4.2	COc1ccc(-c2nc3c([nH]2)C(C)(C)CSCC3(C)C)cc1 [2-(p-Methoxyphenyl)-4,5,7,8-tetrahydro-4,4,8,8-tetramethyl-1-H-thiepino-[4,5-d]imidazole hydrochloride]		
19.7	CC1(C)CSCC(C)(C)c2[nH]c(-c3cccs3)nc21 [4,5,7,8-Tetrahydro-4,4,8,8-tetramethyl-2-(2-thienyl)-1-H-thiepino[4,5-d]-imidazole hydrochloride]		

Second part, the compound before the results:

SMILES	EC50 [1] [µM]	Plasma glucose concentration (%) (Plasma glucose)	Plasma glucose concentration (%) (Plasma glucose; listed as 2-Phenyl-4,5,7,8-tetrahydro-4,4,8,8-tetramethyl-1-H-thiepino-8 4,5-d]-imidazole , hydrochloride)
CC1(C)CSCC(C)(C)c2[nH]c(-c3ccc(F)cc3)nc21 [2-(p-Fluorophenyl)-4,5,7,8-tetrahydro-4,4,8,8-tetramethyl-1-H-thiepino-[4,5-d]imidazole hydrochloride]	4.7	77	
CC1(C)CSCC(C)(C)c2[nH]c(-c3ccc4c(c3)OCO4)nc21 [2-(3,4-Methylenedioxyphenyl)-4,5,7,8-tetrahydro-4,4,8,8-tetramethyl-1-H-thiepino[4,5-d]imidazole hydrochloride]	1.2		
CC1(C)CSCC(C)(C)c2[nH]c(-c3ccccc3)nc21 [2-phenyl-4,5,7,8-tetrahydro-4,4,8,8-tetramethyl-1-H-thiepino[4,5-d]imidazole]		74	
